Like-named read-outs stand apart in the source and are kept apart here.
Molecular target: human ALK5 (Homo sapiens (Human), UniProt P36897)
Test: ADP-GLO Kinases assay, inhibitory activity on ALK5
Assay type: biochemical
[1] = purified recombinant human ALK5 2.6 nM, TGFβ1 peptide substrate, 25° C, 150 min incubation, ADP-Glo detection, read-out: ALK5 IC50

Chain of human ALK5 (P36897 80-503 limits assumed): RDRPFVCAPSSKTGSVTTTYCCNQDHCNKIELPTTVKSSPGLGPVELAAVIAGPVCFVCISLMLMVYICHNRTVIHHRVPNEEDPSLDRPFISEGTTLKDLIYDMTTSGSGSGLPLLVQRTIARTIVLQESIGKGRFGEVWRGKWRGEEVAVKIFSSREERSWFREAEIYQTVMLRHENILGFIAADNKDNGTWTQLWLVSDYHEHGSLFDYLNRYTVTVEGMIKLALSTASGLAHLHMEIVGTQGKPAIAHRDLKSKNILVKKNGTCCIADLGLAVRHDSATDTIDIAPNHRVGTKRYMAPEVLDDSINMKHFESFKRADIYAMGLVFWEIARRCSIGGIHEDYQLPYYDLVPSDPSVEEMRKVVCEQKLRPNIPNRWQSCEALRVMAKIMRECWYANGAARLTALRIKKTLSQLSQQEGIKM

Q: Cc1nnc(-c2cc(Cl)ccc2F)cc1Nc1ccnc2cc(OC(=O)N3CCN(CCC4CCN(C)CC4)C(C(=O)OC4COC4)C3)ccc12 (centres unmarked) [Example 168, 1-(4-{[6-(5-chloro-2-fluorophenyl)-3-methylpyridazin-4-yl]amino}quinolin-7-yl) 3-oxetan-3-yl 4-[2-(1-methylpiperidin-4-yl)ethyl]piperazine-1,3-dicarboxylate] was tested. Which IC50 did it give?
A: 1 to 5 nM

Q: For Cc1nnc(-c2cc(Cl)ccc2F)cc1Nc1ccnc(NC(=O)CCN2CCN(C)C(CO)C2)c1 (centres unmarked) [Example 170], which IC50 [1] is on record?
A: < 1 nM

Q: How did the IC50 [1] turn out when COC(=O)c1cc2c(Nc3cnnc(-c4cc(Cl)ccc4F)c3)ccnc2cc1OCCN1CCN(C)CC1 [Example 171, Methyl 4-{[6-(5-Chloro-2-Fluorophenyl)Pyridazin-4-Yl]Amino}-7-[2-(4-Methylpiperazin-1-Yl)Ethoxy]Quinoline-6-Carboxylate] was run?
A: < 1 nM

Q: For Cc1nnc(-c2cc(Cl)ccc2F)cc1Nc1ccnc(NC(=O)CN2CCN(C)CC2)c1 [Example 172, N-(4-{[6-(5-Chloro-2-Fluorophenyl)-3-Methylpyridazin-4-Yl]Amino}Pyridin-2-Yl)-2-(4-Methylpiperazin-1-Yl)Acetamide], which IC50 [1] is on record?
A: < 1 nM

Q: Which IC50 [1] does the source give for CN1CCN(CCC(=O)Nc2cc(Nc3cc(-c4cc(Cl)ccc4F)nnc3C3CC3)ccn2)CC1 [Example 173] here?
A: < 1 nM

Q: CN1CCN(CCC(=O)Nc2cc(Nc3cc(-c4cc(Cl)ccc4F)nnc3CO)ccn2)CC1 [Example 174, N-(4-{[6-(5-chloro-2-fluorophenyl)-3-(hydroxymethyl)pyridazin-4-yl]amino}pyridin-2-yl)-3-(4-methylpiperazin-1-yl)propanamide] was tested. Which IC50 [1] did it give?
A: < 1 nM

Q: With COC(=O)N(C)CCN1CCN(CC(=O)Nc2cc(Nc3cc(-c4cc(Cl)ccc4F)nnc3CO)ccn2)CC1 [Example 175, Methyl N-[2-(4-{[(4-{[6-(5-Chloro-2-Fluorophenyl)-3-(Hydroxymethyl)Pyridazin-4-Yl]Amino}Pyridin-2-Yl)Carbamoyl]Methyl}Piperazin-1-Yl)Ethyl]-N-Methylcarbamate] as the molecule, how does the IC50 [1] read?
A: < 1 nM

Q: CN1CCN(CC(=O)Nc2cc(Nc3cc(-c4cc(Cl)ccc4F)nnc3CO)ccn2)CC1 [Example 176, N-(4-{[6-(5-chloro-2-fluorophenyl)-3-(hydroxymethyl)pyridazin-4-yl]amino}pyridin-2-yl)-2-(4-methylpiperazin-1-yl)acetamide] was tested. Which IC50 [1] did it give?
A: < 1 nM

Q: How did the IC50 [1] turn out when CN1CCN(CCOc2ccc3c(Nc4cc(-c5cc(Cl)ccc5F)nnc4CO)ccnc3c2)CC1 [Example 177, [6-(5-Chloro-2-Fluorophenyl)-4-({7-[2-(4-Methylpiperazin-1-Yl)Ethoxy]Quinolin-4-Yl}Amino)Pyridazin-3-Yl]Methanol] was run?
A: < 1 nM

Q: How did the IC50 [1] turn out when CN1CCCN(CC(=O)Nc2cc(Nc3cc(-c4cc(Cl)ccc4F)nnc3CO)ccn2)CC1 [Example 178, N-(4-{[6-(5-Chloro-2-Fluorophenyl)-3-(Hydroxymethyl)Pyridazin-4-Yl]Amino}Pyridin-2-Yl)-2-(4-Methyl-1,4-Diazepan-1-Yl)Acetamide] was run?
A: < 1 nM

Q: For CN1CC2(CCN(CC(=O)Nc3cc(Nc4cc(-c5cc(Cl)ccc5F)nnc4CO)ccn3)CC2)C1 [Example 179, N-(4-{[6-(5-Chloro-2-Fluorophenyl)-3-(Hydroxymethyl)Pyridazin-4-Yl]Amino}Pyridin-2-Yl)-2-{2-Methyl-2,7-Diazaspiro[3.5]Nonan-7-Yl}Acetamide], which IC50 [1] is on record?
A: < 1 nM

Q: With Nc1cc(Nc2cc(-c3cc(Cl)ccc3F)nnc2C(F)(F)F)ccn1 [Example 180, N4-[6-(5-Chloro-2-Fluorophenyl)-3-(Trifluoromethyl)Pyridazin-4-Yl]Pyridine-2,4-Diamine] as the molecule, how does the IC50 [1] read?
A: < 1 nM

Q: Fc1ccc(Cl)cc1-c1cc(Nc2ccncc2)c(C(F)(F)F)nn1 [Example 181] was tested. Which IC50 [1] did it give?
A: < 1 nM

Q: For CN1CCN(CCC(=O)Nc2cc(Nc3cc(-c4cc(Cl)ccc4F)nnc3C(F)(F)F)ccn2)CC1 [Example 182, N-(4-{[6-(5-Chloro-2-Fluorophenyl)-3-(Trifluoromethyl) Pyridazin-4-Yl]Amino}Pyridin-2-Yl)-3-(4-Methylpiperazin-1-Yl)Propanamide], which IC50 [1] is on record?
A: < 1 nM

Q: With CN1CCN(CCOc2ccc3c(Nc4cc(-c5cc(Cl)ccc5F)nnc4C(F)(F)F)ccnc3c2)CC1 [Example 183, N-[6-(5-Chloro-2-Fluorophenyl)-3-(Trifluoromethyl)Pyridazin-4-Yl]-7-[2-(4-Methylpiperazin-1-Yl)Ethoxy]Quinolin-4-Amine] as the molecule, how does the IC50 [1] read?
A: < 1 nM

Q: How did the IC50 [1] turn out when O=C(CCN1CCN(CCO)CC1)Nc1cc(Nc2cc(-c3cc(Cl)ccc3F)nnc2C(F)(F)F)ccn1 [Example 184, N-(4-{[6-(5-Chloro-2-Fluorophenyl)-3-(Trifluoromethyl)Pyridazin-4-Yl]Amino}Pyridin-2-Yl)-3-[4-(2-Hydroxyethyl)Piperazin-1-Yl]Propenamide] was run?
A: < 1 nM

Q: With CS(=O)(=O)CCN1CCN(CCC(=O)Nc2cc(Nc3cc(-c4cc(Cl)ccc4F)nnc3C(F)(F)F)ccn2)CC1 [Example 185] as the molecule, how does the IC50 [1] read?
A: < 1 nM

Q: N#CCCN1CCN(CCC(=O)Nc2cc(Nc3cc(-c4cc(Cl)ccc4F)nnc3C(F)(F)F)ccn2)CC1 [Example 186, N-(4-{[6-(5-chloro-2-fluorophenyl)-3-(trifluoromethyl)pyridazin-4-yl]amino}pyridin-2-yl)-3-[4-(2-cyanoethyl)piperazin-1-yl]propenamide] was tested. Which IC50 [1] did it give?
A: < 1 nM

Q: Which IC50 [1] does the source give for COC(=O)CCc1nnc(-c2cc(Cl)ccc2F)cc1Nc1ccnc(NC(=O)CCN2CCN(C)CC2)c1 [Example 187, Methyl 3-[6-(5-Chloro-2-Fluorophenyl)-4-({2-[3-(4-Methylpiperazin-1-Yl)Propanamido]Pyridin-4-Yl}Amino)Pyridazin-3-Yl]Propanoate] here?
A: < 1 nM

Q: Which IC50 [1] does the source give for COC(=O)[C@H]1CC[C@@H](c2nnc(-c3cc(Cl)ccc3F)cc2Nc2ccnc(NC(=O)CCN3CCN(C)CC3)c2)CC1 [Example 188, methyl cis-4-(6-(5-chloro-2-fluorophenyl)-4-((2-(3-(4-methylpiperazin-1-yl)propanamido)pyridin-4-yl)amino)pyridazin-3-yl)cyclohexane-1-carboxylate] here?
A: 1 to 5 nM

Q: How did the IC50 [1] turn out when COC(=O)[C@H]1CC[C@H](c2nnc(-c3cc(Cl)ccc3F)cc2Nc2ccnc(NC(=O)CCN3CCN(C)CC3)c2)CC1 [Example 189, methyl trans-4-(6-(5-chloro-2-fluorophenyl)-4-((2-(3-(4-methylpiperazin-1-yl)propanamido)pyridin-4-yl)amino)pyridazin-3-yl)cyclohexane-1-carboxylate] was run?
A: < 1 nM

Q: Cc1nnc(-c2cc(C(F)F)ccc2F)cc1Nc1ccnc(NC(=O)CCN2CCN(C)CC2)c1 [Example 190, N-[4-({6-[5-(Difluoromethyl)-2-Fluorophenyl]-3-Methylpyridazin-4-Yl}Amino)Pyridin-2-Yl]-3-(4-Methylpiperazin-1-Yl)Propenamide] was tested. Which IC50 [1] did it give?
A: < 1 nM

Q: With COC(=O)CCCc1nnc(-c2cc(Cl)ccc2F)cc1Nc1ccnc(NC(=O)CCN2CCN(C)CC2)c1 [Example 191, Methyl 4-(6-(5-Chloro-2-Fluorophenyl)-4-((2-(3-(4-Methylpiperazin-1-Yl)Propanamido)Pyridin-4-Yl)Amino)Pyridazin-3-Yl)] as the molecule, how does the IC50 [1] read?
A: < 1 nM

Q: Which IC50 [1] does the source give for Fc1ccc(Cl)cc1-c1cc(Nc2nc3cccnc3[nH]2)cnn1 [Example C1, 6-(5-chloro-2-fluorophenyl)-N-{3H-imidazo[4,5-b]pyridin-2-yl}pyridazin-4-amine, reference compound] here?
A: 6290 nM

Q: How did the IC50 [1] turn out when Nc1nccc(Nc2cnnc(-c3cc(Cl)ccc3F)c2)n1 [Example C2, N4-[6-(5-chloro-2-fluorophenyl)pyridazin-4-yl]pyrimidine-2,4-diamine, reference compound] was run?
A: 482 nM

Q: With COC(=O)c1cccc(-c2cc(Nc3ccnc(N)c3)cnn2)c1F [Example C3, reference compound] as the molecule, how does the IC50 [1] read?
A: 10000 nM
